Assay results reported in BindingDB's records for doi:10.1016/j.bmcl.2013.04.070 (2013).

Molecular target: Presenilin-1 (Homo sapiens, UniProt P49768)
Assay: Modulation of human gamma-secretase presenilin-1 subunit expressed in CHO cells coexpressing human APP assessed as decrease in amyloid beta 42 generation after 24 hrs by ELISA

IC50: 31.6 µM
Compound: CCCCCCCCOC(=O)C1(C)CCc2c(C)c(OCC(=O)O)c(C)c(C)c2O1 (stereo unspecified)
